The term IC50 denotes the concentration that gives 50% inhibition. The low end stands for higher potency, the high end for lower potency.

The text below walks through data of paper PMC4475474 (Journal of biomolecular screening, 2015).

The target in the assay is Full-length human SAMHD1 (Homo sapiens, UniProt Q9Y3Z3). Put plainly: Enzyme-coupled malachite green. It is filed as biochemical. Particulars: for Hill slope h: variable Hill slope fit (eq 2); for SAMHD1 inhibition (in words): MG assay dose-response curves.
Full-length human SAMHD1, sequence (Q9Y3Z3 whole entry): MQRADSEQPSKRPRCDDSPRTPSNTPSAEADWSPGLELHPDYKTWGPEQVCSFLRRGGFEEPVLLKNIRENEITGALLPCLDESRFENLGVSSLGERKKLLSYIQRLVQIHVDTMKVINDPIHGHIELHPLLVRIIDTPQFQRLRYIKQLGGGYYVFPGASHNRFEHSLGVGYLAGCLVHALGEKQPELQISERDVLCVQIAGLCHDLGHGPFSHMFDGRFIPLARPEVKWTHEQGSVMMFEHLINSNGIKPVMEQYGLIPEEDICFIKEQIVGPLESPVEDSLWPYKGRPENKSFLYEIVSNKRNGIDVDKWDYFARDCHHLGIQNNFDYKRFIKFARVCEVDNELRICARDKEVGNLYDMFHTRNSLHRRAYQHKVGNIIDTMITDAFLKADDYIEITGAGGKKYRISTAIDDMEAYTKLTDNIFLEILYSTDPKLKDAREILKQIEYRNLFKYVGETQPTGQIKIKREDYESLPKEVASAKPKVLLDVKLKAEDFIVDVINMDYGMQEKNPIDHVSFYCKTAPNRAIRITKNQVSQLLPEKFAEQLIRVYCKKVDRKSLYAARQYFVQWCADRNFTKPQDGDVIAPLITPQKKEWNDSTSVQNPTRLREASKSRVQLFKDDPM

Like-named read-outs stand apart in the source and are kept apart here.

As for `CC(=O)OCC1=C(C(=O)O)N2C(=O)[C@@H](NC(=O)CCC[C@@H](N)C(=O)O)[C@H]2SC1` [CC-Zn, cephalosporin C], the Hill slope h (MG assay dose-response) amounted to 1.4 ± 0.1. For the same compound, the “fold more potent inhibitor (Zn2+ salt vs sodium salt of Ceph C)” value (ratio of IC50 values of the two salt forms) was found to be 200 fold. In the case of `CC(=O)OCC1=C(C(=O)O)N2C(=O)[C@@H](NC(=O)CCC[C@@H](N)C(=O)O)[C@H]2SC1` [Ceph C, cephalosporin C], the “SAMHD1 inhibition (in words)” value is recorded as “weakly inhibitory”. For the compound `[Cl-].[Cl-].[Zn+2]` [Zn^2+], where the note is “MG assay dose-response”, the Hill slope h is listed as 1.2 ± 0.1. For the setting “MG assay dose-response, 0.5 μM SAMHD1, 5 μM PPase, 0.1 mM dGTP, 5 mM MgCl2”, this compound gave an IC50 of 2.1 ± 0.2 µM. The “inhibition after addition of EDTA” value (approximately stoichiometric amounts of EDTA added) is given as “completely rescued”.

For `Nc1ncnc2c1ncn2[C@H]1C[C@H](O)[C@@H](CO)O1` [dAdo, deoxyadenosine], the “SAMHD1 inhibition (in words)” value was “only dGuo showed significant inhibition”. Still for that read-out and setting: as for `Nc1ccn([C@H]2C[C@H](O)[C@@H](CO)O2)c(=O)n1` [dCyt, deoxycytosine], the entry is “only dGuo showed significant inhibition”. For `Nc1nc2c(ncn2[C@H]2C[C@H](O)[C@@H](CO)O2)c(=O)[nH]1` [dGuo, deoxyguanosine], the IC50 was 488 ± 50 µM and the “SAMHD1 inhibition (in words)” value is “significant inhibition”. For `O=c1[nH]cnc2c1ncn2[C@H]1C[C@H](O)[C@@H](CO)O1` [dIno], the “SAMHD1 inhibition (in words)” value is given as “significantly less inhibitory”. As to `Cc1cn([C@H]2C[C@H](O)[C@@H](CO)O2)c(=O)[nH]c1=O` [dThy, deoxythymidine], the “SAMHD1 inhibition (in words)” value is listed as “only dGuo showed significant inhibition”. The same measure, in the same setting: as for `O=c1ccn([C@H]2C[C@H](O)[C@@H](CO)O2)c(=O)[nH]1` [dUrd, deoxyuridine], the entry is “only dGuo showed significant inhibition”.

Consider `Nc1nc2c(ncn2[C@H]2CC[C@@H](CO)O2)c(=O)[nH]1` [ddGuo], for which the “SAMHD1 inhibition (in words)” value is listed as “significantly weaker inhibition”. The same measure, in the same setting: the entry for `Nc1nc2c(ncn2[C@@H]2O[C@H](CO)[C@@H](O)[C@H]2O)c(=O)[nH]1` [rGuo] is “significantly weaker inhibition”.
